Source: patent publication US11364242B2, “Treatment agents for inhibiting HIV and cancer in HIV infected patients” (UNIVERSITY OF MARYLAND, BALTIMORE, priority 2015, dated 2022)
Where two headings read alike, the source gives them in different places.

What was measured:
[1] = test system: PBMCs
Description: (§1) PHA activated PBMCs were infected with HIV-1 for 2 hours. Infected cells were washed to remove non-adsorbed virus, and plated in culture medium containing IL-2 and various dilutions of Torin-2. Cultures were evaluated for HIV production by measuring HIV p24 levels in the culture supernatants by ELISA (FIG. 9A). Also on day 7, cell viability was measured by MTT assays (FIG. 9B) according to an embodiment.
(§2) PHA activated PBMCs were infected with HIV-1 for 2 hours. Infected cells were washed to remove non-adsorbed virus, and plated in culture medium containing IL-2 and various dilutions of Torin-2. On day 3, fresh medium with fresh drug was added to the cultures. On day 7, cultures were evaluated for HIV production by measuring HIV p24 levels in the culture supernatants by ELISA (FIG. 9A). Also on day 7, cell viability was measured by MTT assays (FIG. 9B)/

[2] = test system: HIV-1; test: HIV production in PHA activated PBMCs, p24 ELISA day 7; conditions: p24 day 7
Description: as §1, §2

[3] = test system: HIV-1 BaL; test: Antiretroviral potency with and without INK128 in PBLs infected with HIV BaL; assay type: cell-based; conditions: Human immunodeficiency virus 1, BAL, PBMC, PBMCs, two donors
Description: PBLs were separated from buffy coats by density centrifugation over Ficoll-Hypaque (Sigma™), and activated by culture in the presence of 1 μg/mL anti-human CD3 antibody (clone x35, Fisher Scientific™) and 2 μg/mL anti-human CD28 antibody (Clone CD28.6, eBioscience™) for 3 days. Activated cells were infected by incubation with virus at a multiplicity of infection (MOI) of 0.001 for 2 hours. Infected cells were washed three times with PBS and cultured in 5% CO2 at 37° C., in RPMI/10% FBS supplemented with 100 units/mL IL-2 (Roche™) and antiviral drugs, in 96-well flat-bottom plates at a density of […] PBLs per 200 μL. Following 3 d of culture, half of the medium was replaced with fresh medium containing IL-2 and antiviral drugs. On day 7, viral replication was measured by p24 ELISA (Coulter) in culture supernatants and cell viability was measured by MTT assays.
Available ARTs target the HIV lifecycle steps of entry, reverse transcription, integration, and maturation. […] In addition, by targeting virus transcription, INK128 could have favorable interactions with inhibitors of reverse transcription (RTIs), integration (Hs), and protease (PIs). […] We conducted these assays in activated PBLs infected with R5 HIV BaL and treated with various dilutions of Maraviroc (CCR5 antagonist), Efavirenz (RTI), Raltegravir (II), and Indinavir (PI). INK128 was used at low concentrations (<EC50) to better detect changes in ART potency (Table 7).
Prism software. Data are from 2 experiments, each with a different donor.

[4] = +3 nM INK128, read-out: EC50 (geometric mean)
[5] = +10 nM INK128, read-out: EC50 (geometric mean)
[6] = No INK128, read-out: EC50 (geometric mean)

| Compound | EC50 [3, 4] | EC50 [3, 5] | EC50 [3, 6] | also measured |
| --- | --- | --- | --- | --- |
| Nc1ccc(-c2ccc3ncc4ccc(=O)n(-c5cccc(C(F)(F)F)c5)c4c3c2)cn1 [Torin-2, 9-(6-Amino-3-pyridinyl)-1-[3-(trifluoromethyl)phenyl]-benzo[h]-1,6-naphthyridin-2(1H)-one] |  |  |  | cell toxicity [1]: absence of cell toxicity; HIV inhibition in vitro [2]: inhibits HIV in vitro |
| O=C1Nc2ccc(Cl)cc2[C@@](C#CC2CC2)(C(F)(F)F)O1 [EFV] | 510 pM | 510 pM | 520 pM |  |
| CC(C)(C)NC(=O)[C@@H]1CN(Cc2cccnc2)CCN1C[C@@H](O)C[C@@H](Cc1ccccc1)C(=O)N[C@H]1c2ccccc2C[C@H]1O [IND] | 3140 pM | 3000 pM | 3840 pM |  |
| Cc1nnc(C(=O)NC(C)(C)c2nc(C(=O)NCc3ccc(F)cc3)c(O)c(=O)n2C)o1 [RAL] |  |  |  | EC50 ([3]; read-out: EC50 (geometric mean), +3 nM INK128): 810 pM; EC50 ([3]; read-out: EC50 (geometric mean), +10 nM INK128): 570 pM; EC50 ([3]; read-out: EC50 (geometric mean), No INK128): 650 pM |
